Experimental data published in patent US20220145316A1, “CANCER IMMUNOTHERAPY” (priority 2019, published 2022).
*1 amine or outer side, *2 acyl side, *3 side chain or, on linkers, in order; H or OH if unused. Where a SMILES comes first, the peptide text is derived from it. [ ]: non-standard residue; d: D form. The star is where a group is joined. Dolaproine = CO[C@@H]([C@@H]1CCCN1)[C@@H](C)C(=O)O; Hexanoyl(6-maleimido) = O=C1C=CC(=O)N1CCCCCC(=O)*; Dil = CC[C@H](C)[C@H](NC)[C@@H](CC(=O)O)OC; PABC = O=C(OCc1ccc(N[*:1])cc1)[*:2]; X1 = C[C@@H](N*)[C@@H](O)c1ccccc1; Cit = NC(=O)NCCC[C@H](N)C(=O)O; NMeV = CN[C@H](C(=O)O)C(C)C

Key:
normal donor B cells = details: normal B cells from healthy human donor, 72 hours
Procedure: (§1) Cell viability and proliferation in cell lines were estimated using a resazurin based assay (Prestoblue, Thermo Scientific). Cell viability in healthy B cells was measured using 7-AAD (Cayman Chemical Company, Ann Harbor, Mich.) cell exclusion using flow cytometric analysis gated on the B cell fraction (CD19-PE, BD Biosciences, Franklin Lakes, N.J.).

Daudi cells = details: read-out: IC50 (cytotoxicity), 72 hours
Procedure: as §1

Raji cells = details: read-out: IC50 (cytotoxicity), 72 hours
Procedure: as §1

[1] = after a single administration; cited from earlier work
[2] = test system: Raji-luc B lymphoma cells; test: Drug delivery study in Raji B cell lymphoma model (survival, bioluminescence, kidney histology); assay type: in vivo, NSG mice
Procedure: Drug delivery study and histology: NSG male mice (7 weeks) were inoculated with 1×10^6 Raji-luc cells intravenously. […] For the first study, dosing started on day 3 and drugs/drug delivery system were injected i.p. every 4 days for a total of 6 injections. For the second study, dosing started on day 11 and drugs/drug delivery system were injected i.p. every 4 days for a total of 3 injections. For both studies, weekly bioluminescence imaging using the IVIS Spectrum was used to monitor lymphoma progression. […] Tissues were harvested for histology using H&E staining to show tumor burden or lack thereof.
Male NSG mice were injected intravenously with luciferase expressing Raji cells and monitored for lymphoma engraftment and progression using bioluminescence imaging. Tumor engrafted mice were randomly assigned to the treatment groups (n=5).
The MMAE dose was selected based on the fact that the known maximum tolerated dose (MTD) of free MMAE is 0.25-0.5 mg kg^−1 after a single administration. A dose of 0.125 mg/kg was chosen to allow for multiple treatments. Mice injected intravenously with Raji cells develop hind leg paralysis (due to the infiltration of neoplastic cells into the spinal canal) and/or lose weight prior to death. Therefore, hind leg paralysis or >15% loss in body weight were considered experimental endpoints at which mice were euthanized.

Compound	cytotoxicity towards non-dividing normal donor B cells (normal donor B cells)	IC50 (Daudi cells)	IC50 (Raji cells)	maximum tolerated dose (MTD) [1]	histological analysis of kidney sections, lymphoma cell infiltration ([2]; H&E, PVX and MMAE mice when moribund, PVX-vcMMAE mice at end of study period)	lymphoma progression by bioluminescence imaging ([2]; first study: 6 i.p. injections every 4 days from day 3)	median survival ([2]; first study: 6 i.p. injections every 4 days from day 3, MMAE 0.125 mg/kg, PVX-vcMMAE 0.4 mg/kg, PVX 1 mg, PBS 45 days)	median survival ([2]; second study: 3 i.p. injections every 4 days from day 11, PBS 42 days)
CC[C@H](C)[C@@H]([C@@H](CC(=O)N1CCC[C@H]1[C@H](OC)[C@@H](C)C(=O)N[C@H](C)[C@@H](O)c1ccccc1)OC)N(C)C(=O)[C@@H](NC(=O)[C@H](C(C)C)N(C)C(=O)OCc1ccc(NC(=O)[C@H](CCCNC(N)=O)NC(=O)[C@@H](NC(=O)CCCCCN2C(=O)C=CC2=O)C(C)C)cc1)C(C)C [vcMMAE] ({Hexanoyl(6-maleimido)}-V[Cit][PABC][NMeV]V[Dil][Dolaproine]-X1)	no cytotoxicity	0.08 µM	0.16 µM	–	–	–	–	–
CC[C@H](C)[C@@H]([C@@H](CC(=O)N1CCC[C@H]1[C@H](OC)[C@@H](C)C(=O)N[C@H](C)[C@@H](O)c1ccccc1)OC)N(C)C(=O)[C@@H](NC(=O)[C@@H](NC)C(C)C)C(C)C [MMAE, (S)-N-((3R,4S,5S)-1-((S)-2-((1R,2R)-3-(((1S,2R)-1-hydroxy-1-phenylpropan-2-yl)amino)-1-methoxy-2-methyl-3-oxopropyl)pyrrolidin-1-yl)-3-methoxy-5-methyl-1-oxoheptan-4-yl)-N,3-dimethyl-2-((S)-3-methyl-2-(methylamino)butanamido)butanamide] (H-[NMeV]V[Dil][Dolaproine]-X1)	–	–	–	0.25 to 0.5 mg/kg	reduced lymphoma cell infiltration	partially limited lymphoma progression	61 days	39 days
